Legend:
c-Kit(V654A) = target: T1, c-Kit(V654A) (Homo sapiens, UniProt P10721, V654A); experiment: c-Kit(V654A) assay; assay type: biochemical; settings: recombinant human c-Kit aa 544-end, 200 μM ATP, 1.4E-06 means 1.4×10^−6, read-out: Inhibition (IC50) of c-KIT (V654A)
T1 construct: amino acids 544-end containing the V654A mutation; GST (N)
Method in brief: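 Radiometric filter-binding read-out: substrate 33P incorporation counted by scintillation after P30 filtermat washes in 75 mM phosphoric acid and methanol. Enzyme: N-GST recombinant human c-Kit aa 544-end carrying V654A.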

PDGFRalpha(V561D) = target: T2, PDGFRalpha(V561D) (Homo sapiens, UniProt P16234, V561D); experiment: PDGFRalpha(V561D) assay; assay type: biochemical; settings: recombinant human PDGFRalpha aa 550-end, 200 μM ATP, 1.4E-06 means 1.4×10^−6, read-out: Inhibition (IC50) of PDGFRα (V561D)
T2 construct: recombinant human PDGFRalpha, amino acids 550end containing the V561 D mutation; 6His (N)
Method in brief: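 Radiometric filter-binding assay: substrate phosphorylation by recombinant N-His-tagged human PDGFRα 550-end V561D was quenched with 3% phosphoric acid after 40 min at room temperature, then counted.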

T1 sequence (P10721 544-976 V654A): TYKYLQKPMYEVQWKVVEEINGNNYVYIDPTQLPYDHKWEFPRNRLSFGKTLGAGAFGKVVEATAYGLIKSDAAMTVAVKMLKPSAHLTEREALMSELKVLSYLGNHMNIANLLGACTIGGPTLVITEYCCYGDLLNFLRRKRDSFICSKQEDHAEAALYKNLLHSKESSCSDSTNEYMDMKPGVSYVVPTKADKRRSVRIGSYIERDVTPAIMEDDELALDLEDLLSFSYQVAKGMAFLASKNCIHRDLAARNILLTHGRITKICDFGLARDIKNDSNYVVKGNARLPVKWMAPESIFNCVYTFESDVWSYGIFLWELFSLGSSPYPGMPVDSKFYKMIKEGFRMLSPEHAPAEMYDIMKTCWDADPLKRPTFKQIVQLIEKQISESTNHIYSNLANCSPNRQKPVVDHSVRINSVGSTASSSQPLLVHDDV
T2 sequence (P16234 550-1089 V561D): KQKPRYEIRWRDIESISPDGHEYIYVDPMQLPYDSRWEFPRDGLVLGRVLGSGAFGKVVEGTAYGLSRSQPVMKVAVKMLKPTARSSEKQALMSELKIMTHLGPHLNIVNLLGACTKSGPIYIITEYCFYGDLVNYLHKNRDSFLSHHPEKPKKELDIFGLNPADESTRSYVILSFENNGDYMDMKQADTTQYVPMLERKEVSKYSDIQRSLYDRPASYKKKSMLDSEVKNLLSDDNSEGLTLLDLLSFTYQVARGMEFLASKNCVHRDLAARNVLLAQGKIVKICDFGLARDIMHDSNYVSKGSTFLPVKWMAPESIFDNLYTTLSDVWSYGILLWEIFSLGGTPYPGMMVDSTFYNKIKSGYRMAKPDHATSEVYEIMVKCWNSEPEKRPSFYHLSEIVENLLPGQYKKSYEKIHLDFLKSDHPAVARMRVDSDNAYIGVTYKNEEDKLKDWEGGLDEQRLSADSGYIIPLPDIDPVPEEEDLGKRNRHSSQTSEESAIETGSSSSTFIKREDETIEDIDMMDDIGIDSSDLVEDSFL

Compound: CN1CCN(C(=O)c2ccc(-n3cc(-c4cc5cnccc5[nH]c4=O)nn3)cc2)CC1 [A62, 3-{1-[4-(4-methyl-piperazine-1-carbonyl)-phenyl]-1H-[1,2,3]triazol-4-yl}-1H-[1,6]naphthyridin-2-one]
- IC50 (c-Kit(V654A)): 200 nM
- IC50 (PDGFRalpha(V561D)): 46 nM

Compound: CN1CCN(C(=O)c2ccc(-n3cc(-c4cc5ccncc5[nH]c4=O)nn3)cc2)CC1 [A63, 3-{1-[4-(4-methyl-piperazine-1-carbonyl)-phenyl]-1H-[1,2,3]triazol-4-yl}-1H-[1,7]naphthyridin-2-one]
- IC50 (c-Kit(V654A)): 130 nM
- IC50 (PDGFRalpha(V561D)): 40 nM

Compound: CN1CCN(C(=O)c2ccc(-n3cc(-c4cc5cccnc5[nH]c4=O)nn3)cc2)CC1 [A64, 3-{1-[4-(4-methyl-piperazine-1-carbonyl)-phenyl]-1H-[1,2,3]triazol-4-yl}-1H-[1,8]naphthyridin-2-one]
- IC50 (c-Kit(V654A)): 44 nM
- IC50 (PDGFRalpha(V561D)): 16 nM

Compound: Cc1ccc2cc(-c3cn(-c4ccc(C(=O)N5CCN(C)CC5)cc4)nn3)c(=O)[nH]c2n1 [A65, 7-methyl-3-{1-[4-(4-methyl-piperazine-1-carbonyl)-phenyl]-1H-[1,2,3]triazol-4-yl}-1H-[1,8]naphthyridin-2-one]
- IC50 (c-Kit(V654A)): 1200 nM
- IC50 (PDGFRalpha(V561D)): 150 nM

Compound: CN1CCN(c2ncc(-n3cc(-c4cc5ccccc5[nH]c4=O)nn3)cn2)CC1 [A66, 3-{1-[2-(4-methyl-piperazin-1-yl)-pyrimidin-5-yl]-1H-[1,2,3]triazol-4-yl}-1H-quinolin-2-one]
- IC50 (c-Kit(V654A)): 640 nM
- IC50 (PDGFRalpha(V561D)): 190 nM

Compound: CN1CCN(C(=O)c2ccc(-n3cc(-c4cc5cc(F)cnc5[nH]c4=O)nn3)cc2)CC1 [A67, 6-fluoro-3-{1-[4-(4-methyl-piperazine-1-carbonyl)-phenyl]-1H-[1,2,3]triazol-4-yl}-1H-[1,8]naphthyridin-2-one]
- IC50 (c-Kit(V654A)): 24 nM
- IC50 (PDGFRalpha(V561D)): 4 nM

Compound: CN1CCN(c2ccc(-n3cc(-c4cc5ccccc5[nH]c4=O)nn3)cc2)C(=O)C1 [A68, 3-{1-[4-(4-methyl-2-oxo-piperazin-1-yl)-phenyl]-1H-[1,2,3]triazol-4-yl}-1H-quinolin-2-one]
- IC50 (c-Kit(V654A)): 28 nM
- IC50 (PDGFRalpha(V561D)): 7 nM

Compound: CN1CCCN(c2ccc(-n3cc(-c4cc5ccccc5[nH]c4=O)nn3)cc2)CC1 [A69, 3-{1-[4-(4-methyl-[1,4]diazepan-1-yl)-phenyl]-1H-[1,2,3]triazol-4-yl}-1H-quinolin-2-one]
- IC50 (c-Kit(V654A)): 14 nM
- IC50 (PDGFRalpha(V561D)): 10 nM

Compound: CN1CCN(c2ccc(-n3cc(-c4cc5cc(F)ccc5[nH]c4=O)nn3)cc2)CC1 [A70, 6-fluoro-3-{1-[4-(4-methyl-piperazin-1-yl)-phenyl]-1H-[1,2,3]triazol-4-yl}-1H-quinolin-2-one]
- IC50 (c-Kit(V654A)): 14 nM
- IC50 (PDGFRalpha(V561D)): 5 nM

Compound: CN1CCN(c2ccc(-n3cc(-c4cc5cc(F)ccc5[nH]c4=O)nn3)cc2)C(=O)C1 [A71, 6-fluoro-3-{1-[4-(4-methyl-2-oxo-piperazin-1-yl)-phenyl]-1H-[1,2,3]triazol-4-yl}-1H-quinolin-2-one]
- IC50 (c-Kit(V654A)): 8 nM
- IC50 (PDGFRalpha(V561D)): 4 nM

Compound: CN1CCN(CCOc2ccc(-n3cc(-c4cc5ccccc5[nH]c4=O)nn3)cc2)CC1 [A72, 3-(1-{4-[2-(4-methyl-piperazin-1-yl)-ethoxy]-phenyl}-1H-[1,2,3]triazol-4-yl)-1H-quinolin-2-one]
- IC50 (c-Kit(V654A)): 11 nM
- IC50 (PDGFRalpha(V561D)): 4 nM

Compound: CN1CCN(C(=O)c2ccc(-n3cc(-c4cc5ccccc5[nH]c4=O)cn3)cc2)CC1 [A74, 3-{1-[4-(4-methyl-piperazine-1-carbonyl)-phenyl]-1H-pyrazol-4-yl}-1H-quinolin-2-one]
- IC50 (c-Kit(V654A)): 8 nM
- IC50 (PDGFRalpha(V561D)): 6 nM

Compound: O=c1[nH]c2ccccc2cc1-c1cnn(-c2ccccc2)c1 [A75, 3-(1-phenyl-1H-pyrazol-4-yl)-1H-quinolin-2-one]
- IC50 (c-Kit(V654A)): 48 nM
- IC50 (PDGFRalpha(V561D)): 18 nM

Compound: O=C(c1cccc(-n2cc(-c3cc4ccccc4[nH]c3=O)nn2)c1)N1CCOCC1 [A76, 3-{1-[3-(morpholine-4-carbonyl)-phenyl]-1H-[1,2,3]triazol-4-yl}-1H-quinolin-2-one]
- IC50 (c-Kit(V654A)): 49 nM
- IC50 (PDGFRalpha(V561D)): 30 nM

Compound: O=C(O)c1ccc(-n2cc(-c3cc4cccnc4[nH]c3=O)nn2)cc1 [A77, 4-[4-(2-Oxo-1,2-dihydro-[1,8]naphthyridin-3-yl)-[1,2,3]triazol-1-yl]-benzoic acid]
- IC50 (c-Kit(V654A)): 470 nM
- IC50 (PDGFRalpha(V561D)): 110 nM

Compound: O=C(c1cccc(-n2cc(-c3cc4ccccc4[nH]c3=O)nn2)c1)N1CCNCC1 [A78, 3-{1-[3-(piperazine-1-carbonyl)-phenyl]-1H-[1,2,3]triazol-4-yl}-1H-quinolin-2-one]
- IC50 (c-Kit(V654A)): 17 nM
- IC50 (PDGFRalpha(V561D)): 31 nM

Compound: CN1CCN(C(=O)c2cccc(-n3cc(-c4cc5ccccc5[nH]c4=O)nn3)c2)CC1 [A79, 3-{1-[3-(4-methyl-piperazine-1-carbonyl)-phenyl]-1H-[1,2,3]triazol-4-yl}-1H-quinolin-2-one]
- IC50 (c-Kit(V654A)): 33 nM
- IC50 (PDGFRalpha(V561D)): 31 nM

Compound: C=C(C)c1ccc(-n2cc(-c3cc4ccccc4[nH]c3=O)nn2)cc1 [A80, 3-[1-(4-isopropenyl-phenyl)-1H-[1,2,3]triazol-4-yl]-1H-quinolin-2-one]
- IC50 (c-Kit(V654A)): 120 nM
- IC50 (PDGFRalpha(V561D)): 44 nM

Compound: CC(C)(c1ccc(-n2cc(-c3cc4ccccc4[nH]c3=O)nn2)cc1)S(C)(=O)=O [A81, 3-{1-[4-(1-methanesulfonyl-1-methyl-ethyl)-phenyl]-1H-[1,2,3]triazol-4-yl}-1H-quinolin-2-one]
- IC50 (c-Kit(V654A)): 17 nM
- IC50 (PDGFRalpha(V561D)): 6 nM

Compound: O=C(c1ccc(-n2cc(-c3cc4ccc(Cl)cc4[nH]c3=O)nn2)cc1)N1CCOCC1 [A82, 7-chloro-3-{1-[4-(morpholine-4-carbonyl)-phenyl]-1H-[1,2,3]triazol-4-yl}-1H-quinolin-2-one]
- IC50 (c-Kit(V654A)): 14 nM
- IC50 (PDGFRalpha(V561D)): 3 nM

Compound: O=C(c1ccc(-n2cc(-c3cc4ccc(F)cc4[nH]c3=O)nn2)cc1)N1CCOCC1 [A83, 7-fluoro-3-{1-[4-(morpholine-4-carbonyl)-phenyl]-1H-[1,2,3]triazol-4-yl}-1H-quinolin-2-one]
- IC50 (c-Kit(V654A)): 10 nM
- IC50 (PDGFRalpha(V561D)): 3 nM

Compound: Cc1ccc2cc(-c3cn(-c4ccc(C(=O)N5CCOCC5)cc4)nn3)c(=O)[nH]c2c1 [A84, 7-methyl-3-{1-[4-(morpholine-4-carbonyl)-phenyl]-1H-[1,2,3]triazol-4-yl}-1H-quinolin-2-one]
- IC50 (c-Kit(V654A)): 48 nM
- IC50 (PDGFRalpha(V561D)): 5 nM

Compound: O=C(c1ccc(-n2cc(-c3cc4ncccc4[nH]c3=O)nn2)cc1)N1CCOCC1 [A85, 3-{1-[4-(morpholine-4-carbonyl)-phenyl]-1H-[1,2,3]triazol-4-yl}-1H-[1,5]naphthyridin-2-one]
- IC50 (c-Kit(V654A)): 1300 nM
- IC50 (PDGFRalpha(V561D)): 1700 nM

Compound: COCCCN1CCN(C(=O)c2ccc(-n3cc(-c4cc5cc(F)ccc5[nH]c4=O)nn3)cc2)CC1 [A86, 6-fluoro-3-(1-{4-[4-(3-methoxy-propyl)-piperazine-1-carbonyl]-phenyl}-1H-[1,2,3]triazol-4-yl)-1H-quinolin-2-one]
- IC50 (c-Kit(V654A)): 11 nM
- IC50 (PDGFRalpha(V561D)): 2 nM

Compound: COCCCN1CCN(C(=O)c2ccc(-n3cc(-c4cc5c(F)cccc5[nH]c4=O)nn3)cc2)CC1 [A87, 5-fluoro-3-(1-{4-[4-(3-methoxy-propyl)-piperazine-1-carbonyl]-phenyl}-1H-[1,2,3]triazol-4-yl)-1H-quinolin-2-one]
- IC50 (c-Kit(V654A)): 25 nM
- IC50 (PDGFRalpha(V561D)): 12 nM

Compound: COCCCN1CCN(C(=O)c2ccc(-n3cc(-c4cc5cc(F)cnc5[nH]c4=O)nn3)cc2)CC1 [A88, 6-fluoro-3-(1-{4-[4-(3-methoxy-propyl)-piperazine-1-carbonyl]-phenyl}-1H-[1,2,3]triazol-4-yl)-1H-[1,8]naphthyridin-2-one]
- IC50 (c-Kit(V654A)): 90 nM
- IC50 (PDGFRalpha(V561D)): 6 nM

Compound: COCCCN1CCN(C(=O)c2ccc(-n3cc(-c4cc5cccnc5[nH]c4=O)nn3)cc2)CC1 [A89, 3-(1-{4-[4-(3-methoxy-propyl)-piperazine-1-carbonyl]-phenyl}-1H-[1,2,3]triazol-4-yl)-1H-[1,8]naphthyridin-2-one]
- IC50 (c-Kit(V654A)): 36 nM
- IC50 (PDGFRalpha(V561D)): 8 nM

Compound: O=C(c1ccc(-n2cc(-c3cc4c(F)cc(F)cc4[nH]c3=O)nn2)cc1)N1CCOCC1 [A90, 5,7-difluoro-3-{1-[4-(morpholine-4-carbonyl)-phenyl]-1H-[1,2,3]triazol-4-yl}-1H-quinolin-2-one]
- IC50 (c-Kit(V654A)): 20 nM
- IC50 (PDGFRalpha(V561D)): 29 nM

Compound: O=C(c1ccc(-n2cc(-c3cc4ccc(Br)cc4[nH]c3=O)nn2)cc1)N1CCOCC1 [A91, 7-bromo-3-{1-[4-(morpholine-4-carbonyl)-phenyl]-1H-[1,2,3]triazol-4-yl}-1H-quinolin-2-one]
- IC50 (c-Kit(V654A)): 19 nM
- IC50 (PDGFRalpha(V561D)): 8.2 nM

Compound: CN1CCN(C(=O)c2ccc(-n3cc(-c4cc5cc(F)ccc5[nH]c4=O)nn3)cc2)CC1=O [A92, 6-fluoro-3-{1-[4-(4-methyl-3-oxo-piperazine-1-carbonyl)-phenyl]-1H-[1,2,3]triazol-4-yl}-1H-quinolin-2-one]
- IC50 (c-Kit(V654A)): 21 nM
- IC50 (PDGFRalpha(V561D)): 5.9 nM

Compound: COc1ccc2cc(-c3cn(-c4ccc(C(=O)N5CCOCC5)cc4)nn3)c(=O)[nH]c2c1 [A93, 7-methoxy-3-{1-[4-(morpholine-4-carbonyl)-phenyl]-1H-[1,2,3]triazol-4-yl}-1H-quinolin-2-one]
- IC50 (c-Kit(V654A)): 320 nM
- IC50 (PDGFRalpha(V561D)): 310 nM

Compound: O=C(c1ccc(-n2cc(-c3cc4cncnc4[nH]c3=O)nn2)cc1)N1CCOCC1 [A94, 6-{1-[4-(Morpholine-4-carbonyl)-phenyl]-1H-[1,2,3]triazol-4-yl}-8H-pyrido[2,3-d]pyrimidin-7-one]
- IC50 (c-Kit(V654A)): 3600 nM
- IC50 (PDGFRalpha(V561D)): 2300 nM

Compound: O=c1[nH]c2ccc(F)cc2cc1-c1cn(-c2cccc(OCCN3CCOCC3)c2)nn1 [A94a, 6-fluoro-3-{1-[3-(2-morpholin-4-yl-ethoxy)-phenyl]-1H-[1,2,3]triazol-4-yl}-1H-quinolin-2-one]
- IC50 (c-Kit(V654A)): 60 nM
- IC50 (PDGFRalpha(V561D)): 54 nM
